Assay results reported in patent US20250296953A1, “3,4-THIAZOLO-STEROIDS AND METHODS OF MAKING AND USING THE SAME” (Arkansas State University - Jonesboro, priority 2018, published 2025).
Read-outs that look alike come from different tables or passages of the source.

Columns and labels:
[1] = system: SK-MEL-25; assay: Melanoma cytotoxicity assay (resazurin); assay type: cell-based; details: SK-MEL-25 melanoma cells, resazurin
How it was run: (§1)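 Cells are plated at roughly 4000 per well and allowed 24 h before compound addition in triplicate. After a further 24 h, resazurin is added for 6 h and fluorescence measured; percent viability is normalized to DMSO-treated wells.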

[2] = system: SK-MEL-28; assay: Melanoma cytotoxicity assay (resazurin); assay type: cell-based; details: SK-MEL-28 melanoma cells, resazurin
How it was run: as §1

[3] = system: SR; assay: NCI 60 five dose screen
[4] = system: SF-295; assay: NCI 60 one dose screen; assay type: cell-based, human; details: one dose; CNS Cancer; SF-295
[5] = system: gliosarcoma (SF-539); assay: NCI 60 five dose screen
[6] = system: 60 different human tumor cell lines; details: for GI50 / TGI: five dose
[7] = 24 hours with compound, concentration not given
[8] = A549/ATCC (Non-small Cell Lung Cancer)
[9] = EKVX (Non-small Cell Lung Cancer)
[10] = HOP-62 (Non-small Cell Lung Cancer)
[11] = HOP-92 (Non-small Cell Lung Cancer)
[12] = MDA-MB-231/ATCC (Breast Cancer)
[13] = NCI-H23 (Non-small Cell Lung Cancer)
[14] = NCI-H226 (Non-small Cell Lung Cancer)
[15] = NCI-H322M (Non-small Cell Lung Cancer)
[16] = NCI-H460 (Non-small Cell Lung Cancer)
[17] = NCI-H522 (Non-small Cell Lung Cancer)

Substance: (1S,2R,13R,14S,18S)-7-(3-fluoroanilino)-2,18-dimethyl-6-thia-8-azapentacyclo[11.7.0.02,10.05,9.014,18]icosa-5(9),7,10-trien-17-one [IIa.8]
- SK-MEL-25 (% inhibition) [1, 7]: 88%
- IC50 ([1]; 24 hours, read-out: SK-MEL-25 (IC50)): 10000 nM
- SK-MEL-28 (% inhibition) [2, 7]: 90%
- IC50 ([2]; 24 hours): > 20000 nM
- GI50 ([3]; SR (Leukemia), five dose): 859 nM
- 50% growth inhibition (GI50) ([3]; leukemia cell line SR): submicromolar
- CC50 ([3]; read-out: LC50, SR (Leukemia), five dose): > 100000 nM
- Growth Percent [4]: −18.79%
- GI50 ([5]; SF-539 (CNS Cancer), five dose): 1340 nM
- TGI ([5]; SF-539 (CNS Cancer), five dose): 2.94E−6
- GI50 ([5]; gliosarcoma SF-539): 1340 nM
- CC50 ([5]; read-out: LC50, SF-539 (CNS Cancer), five dose): 6450 nM
- CC50 [6]: > 100000 nM
- GI50 ([6]; 786-0 (Renal Cancer)): 1430 nM
- TGI ([6]; 786-0 (Renal Cancer)): 2.83E−6
- GI50 ([6]; A498 (Renal Cancer)): 2160 nM
- TGI ([6]; A498 (Renal Cancer)): 6.77E−6
- GI50 [6, 8]: 2580 nM
- TGI [6, 8]: 7.50E−6
- GI50 ([6]; ACHN (Renal Cancer)): 1780 nM
- TGI ([6]; ACHN (Renal Cancer)): 3.24E−6
- GI50 ([6]; BT-549 (Breast Cancer)): 1540 nM
- TGI ([6]; BT-549 (Breast Cancer)): 3.62E−6
- GI50 ([6]; CAKI-1 (Renal Cancer)): 1990 nM
- TGI ([6]; CAKI-1 (Renal Cancer)): 5.73E−6
- GI50 ([6]; CCRF-CEM (Leukemia)): 1900 nM
- TGI ([6]; CCRF-CEM (Leukemia)): >1.00E−4
- GI50 ([6]; COLO 205 (Colon Cancer)): 2160 nM
- TGI ([6]; COLO 205 (Colon Cancer)): 4.81E−6
- GI50 ([6]; DU-145 (Prostate Cancer)): 1930 nM
- TGI ([6]; DU-145 (Prostate Cancer)): 4.87E−6
- GI50 [6, 9]: 2500 nM
- TGI [6, 9]: 1.85E−5
- GI50 ([6]; HCC-2998 (Colon Cancer)): 3550 nM
- TGI ([6]; HCC-2998 (Colon Cancer)): 1.46E−5
- GI50 ([6]; HCT-15 (Colon Cancer)): 1580 nM
- TGI ([6]; HCT-15 (Colon Cancer)): 4.08E−6
- GI50 ([6]; HCT-116 (Colon Cancer)): 1590 nM
- TGI ([6]; HCT-116 (Colon Cancer)): 3.24E−6
- GI50 ([6]; HL-60(TB) (Leukemia)): 2730 nM
- TGI ([6]; HL-60(TB) (Leukemia)): 8.00E−6
- GI50 [6, 10]: 2070 nM
- TGI [6, 10]: 5.34E−6
- GI50 [6, 11]: 2250 nM
- TGI [6, 11]: 4.17E−6
- GI50 ([6]; HS 578T (Breast Cancer)): 3140 nM
- TGI ([6]; HS 578T (Breast Cancer)): >1.00E−4
- GI50 ([6]; HT29 (Colon Cancer)): 1490 nM
- TGI ([6]; HT29 (Colon Cancer)): 3.51E−6
- GI50 ([6]; IGROV1 (Ovarian Cancer)): 1890 nM
- TGI ([6]; IGROV1 (Ovarian Cancer)): 3.83E−6
- GI50 ([6]; K-562 (Leukemia)): 1860 nM
- GI50 ([6]; KM12 (Colon Cancer)): 3000 nM
- TGI ([6]; KM12 (Colon Cancer)): 1.24E−5
- GI50 ([6]; LOX IMVI (Melanoma)): 1670 nM
- TGI ([6]; LOX IMVI (Melanoma)): 3.21E−6
- GI50 ([6]; M14 (Melanoma)): 2360 nM
- TGI ([6]; M14 (Melanoma)): 7.23E−6
- GI50 ([6]; MALME-3M (Melanoma)): 1940 nM
- TGI ([6]; MALME-3M (Melanoma)): 5.04E−6
- GI50 ([6]; MCF7 (Breast Cancer)): 1370 nM
- TGI ([6]; MCF7 (Breast Cancer)): 3.28E−6
- GI50 [6, 12]: 2110 nM
- TGI [6, 12]: 4.59E−6
- GI50 ([6]; MDA-MB-435 (Melanoma)): 2740 nM
- TGI ([6]; MDA-MB-435 (Melanoma)): 1.31E−5
- GI50 ([6]; MDA-MB-468 (Breast Cancer)): 2010 nM
- TGI ([6]; MDA-MB-468 (Breast Cancer)): 4.18E−6
- GI50 ([6]; MOLT-4 (Leukemia)): 1680 nM
- TGI ([6]; MOLT-4 (Leukemia)): 2.83E−5
- GI50 [6, 13]: 2270 nM
- TGI [6, 13]: 9.08E−6
- GI50 [6, 14]: 2350 nM
- TGI [6, 14]: 5.70E−6
- GI50 [6, 15]: 3600 nM
- TGI [6, 15]: 2.89E−6
- GI50 [6, 16]: 2520 nM
- TGI [6, 16]: 5.58E−6
- GI50 [6, 17]: 1630 nM
- TGI [6, 17]: 3.06E−6
- GI50 ([6]; NCI/ADR-RES (Ovarian Cancer)): 2810 nM
- TGI ([6]; NCI/ADR-RES (Ovarian Cancer)): 1.72E−5
- GI50 ([6]; OVCAR-3 (Ovarian Cancer)): 1720 nM
- TGI ([6]; OVCAR-3 (Ovarian Cancer)): 3.30E−6
- GI50 ([6]; OVCAR-4 (Ovarian Cancer)): 2710 nM
- TGI ([6]; OVCAR-4 (Ovarian Cancer)): >1.00E−4
- GI50 ([6]; OVCAR-5 (Ovarian Cancer)): 2730 nM
- TGI ([6]; OVCAR-5 (Ovarian Cancer)): 1.80E−5
- GI50 ([6]; OVCAR-8 (Ovarian Cancer)): 2790 nM
